Read-outs that look alike come from different tables or passages of the source.
Key:
Plasma bound fraction = assay type: in vitro ADME
From the text: PBF is the plasma bound fraction. Plasma bound fraction may be determined experimentally in vitro by conventional known means using standard tests (preferably a method employing equilibrium dialysis).

[1] = Rate of clearance of the drug substance (total systemic clearance); assay type: in vivo; conditions: human, plasma; in adults
From the text: C is expressed in units of ml/hr and is the rate of clearance of the drug substance. Clearance may be determined experimentally in vivo by conventional known means using standard tests. For example it can be determined from the plasma concentration in response to a defined input of drug using the equation given below: Clearance (ml/hr)=Input rate (ng/hr)/Total plasma concentration (ng/ml)

[2] = Peak plasma concentration after oral dosing of farglitazar; assay type: in vivo, human
From the text: Z is expressed in units of ng/ml and is the target local free (i.e. unbound) concentration that is expected to have a therapeutic effect against the skin condition. In the case of PPAR gamma agonists, Z should correspond to the peak plasma free drug concentration generated by dosing these drugs orally to treat effectively Type II diabetes mellitus. The appropriate value of Z may be determined experimentally in vivo by conventional known means using standard protocols.
The value Z for farglitazar is 0.31 ng/ml [Peak plasma concentration for a 5 mg dose is about 157 ng/ml; 0.31 is 157*(100-99.8)/100].

[3] = tested on: fasting plasma glucose in patients with type II diabetes; conditions: cited from earlier work

| Plasma bound fraction (Plasma bound fraction) | clearance [1] | Peak plasma concentration ([2]; 5 mg dose, total drug) | Z, target local free (unbound) concentration = peak plasma free drug concentration ([2]; 157*(100-99.8)/100, 5 mg dose) | Structure (SMILES) | Time to achieve a reduction of fasting plasma glucose by 2 mmol/l ([3]; 2 mg b.i.d. dosage regimen) | Time to achieve a reduction of fasting plasma glucose by 2 mmol/l ([3]; 4 mg b.i.d. dosage regimen) |
| --- | --- | --- | --- | --- | --- | --- |
| 99.8% | 250 mL/min | about 157 ng/ml | 0.31 ng/mL | Cc1oc(-c2ccccc2)nc1CCOc1ccc(C[C@H](Nc2ccccc2C(=O)c2ccccc2)C(=O)O)cc1 [farglitazar, N-(2-benzoylphenyl)-O-[2-(5-methyl-2-phenyl-4-oxazolyl)ethyl]-L-tyrosine] |  |  |
|  |  |  |  | CN(CCOc1ccc(CC2SC(=O)NC2=O)cc1)c1ccccn1 (stereo not drawn) [rosiglitazone, 5-[4-[2-(N-methyl-N-(2-pyridyl)amino)ethoxy]benzyl]thiazolidine-2,4-dione] | about 8 weeks | about 4 weeks |
